Publication PMC7472354, “Enhanced Antimicrobial Activity of N-Terminal Derivatives of a Novel Brevinin-1 Peptide from The Skin Secretion of Odorrana schmackeri” (Toxins, 2020)
In brackets after ≈: the same amount, converted by molar mass. Where a SMILES comes first, the peptide text is derived from it.

How the values were obtained:
horse red blood cells = assay: Haemolysis assay and therapeutic index; conditions: 2% horse red blood cells in PBS, 2 h, 37 °C, absorbance 570 nm; best-fitted curve
[1] = test system: Candida albicans (NCPF 1467); format: cell-based
Description: (§1) The minimal inhibitory concentrations (MICs) and minimum bactericidal concentrations (MBCs) were evaluated to determine the antimicrobial activity of synthetic peptides. The microorganisms employed in the study are two kinds of Gram-negative bacteria, Escherichia coli (NCTC 10418) and Pseudomonas aeruginosa (ATCC 27853), three kinds of Gram-positive bacteria, Staphylococcus aureus (NCTC 10788), Methicillin-resistant Staphylococcus aureus (MRSA, ATCC 12493) and Enterococcus faecalis (NCTC 12697) and a yeast, Candida albicans (NCPF 1467), as indicated previously. […] The sterilised broth medium was used as the positive control and the microorganism cultured in the medium only was treated as the negative control. […] The MBC results were defined as the lowest bactericidal concentrations of peptide. The antimicrobial activity of peptides was tested by monitoring the absorbance at 550 nm using an ELISA plate reader (Biolise BioTek EL808, Winooski, VT, USA).

[2] = test system: Methicillin-resistant Staphylococcus aureus (MRSA, ATCC 12493); format: cell-based
Description: as §1

[3] = test system: Escherichia coli (NCTC 10418); format: cell-based
Description: as §1

[4] = test system: Staphylococcus aureus (NCTC 10788); format: cell-based
Description: as §1

[5] = test system: Enterococcus faecalis (NCTC 12697); format: cell-based
Description: as §1

[6] = test system: Pseudomonas aeruginosa (ATCC 27853); format: cell-based
Description: as §1

[7] = test system: Galleria mellonella larvae; assay: Toxicity to uninfected Galleria mellonella larvae; format: in vivo; conditions: uninfected G. mellonella larvae injected with drug; n = 30 per group; vancomycin 20 mg/kg
Description: The in vivo study of antimicrobial activity of the peptides was evaluated using the larvae of Galleria mellonella, which was described in the previous study with minor modifications. The larvae of Galleria mellonella (250 ± 25 mg; Livefood UK Ltd., Rooks Bridge, UK) were selected. The MRSA culture was prepared the same way as the antimicrobial activity assay. Then, MRSA cells were collected and washed, and further diluted to 10^8 CFU/mL in the saline. Ten µL of MRSA suspension was injected to the larvae and placed in a petri dish. After 2 h, the MRSA infected larvae were administrated with 10 µL of peptides (25 mg/kg, 50 mg/kg) by injection. Saline and vancomycin (20 mg/kg) (Sigma-Aldrich, UK) were used as the negative control and positive control, respectively. Each sample group contained 10 larvae, and the experiment was repeated three times (30 larvae for each group in total). The survival curves were achieved using Prism (Version 6.0; GraphPad Software Inc., San Diego, CA, USA) and the log-rank test was employed to analyze the significance between the different treatments and the controls. * (p < 0.05), ** (p < 0.01) and *** (p < 0.001) represent statistical significance.
Figure A9 Larvae without any MRSA infection were injected with peptides and vancomycin respectively to access the cytotoxicity of the drugs to larvae bodies. […] Effect of treatment of G. mellonella larvae (n = 30 for each group) without any infection and only treated with 5 µL vancomycin (20 mg/kg), OSd, OSe and OSf.

SMILES	HC50 (concentration causing 50% haemolysis of the red blood cells) (horse red blood cells) [µM]	MBC ([1]; NCPF 1467, 18 h) [µM]	MIC ([1]; NCPF 1467, 24 h) [µM]	MBC ([2]; ATCC 12493, 18 h) [µM]	MIC ([2]; ATCC 12493, 24 h) [µM]	MBC ([3]; NCTC 10418, 18 h) [µM]	MIC ([3]; NCTC 10418, 24 h) [µM]	MBC ([4]; NCTC 10788, 18 h) [µM]	MIC ([4]; NCTC 10788, 24 h) [µM]	MBC ([5]; NCTC 12697, 18 h) [µM]	MIC ([5]; NCTC 12697, 24 h) [µM]	MBC ([6]; ATCC 27853, 18 h) [µM]	MIC ([6]; ATCC 27853, 24 h) [µM]	toxicity to larvae without MRSA infection [7]
CC[C@H](C)[C@H](NC(=O)CNC(=O)[C@@H]1CCCN1C(=O)[C@H](CC(C)C)NC(=O)[C@@H](N)Cc1ccccc1)C(=O)N[C@@H](CC(C)C)C(=O)N[C@@H](CCCCN)C(=O)N[C@H](C(=O)N[C@@H](C)C(=O)N[C@@H](C)C(=O)N[C@@H](CCCCN)C(N)=O)C(C)C [OSb] (H-FLPGILKVAAK-NH2)	381.4	> 512	512 (≈ 592 µg/mL)	> 512	> 512	> 512	> 512	> 512	256 (≈ 296 µg/mL)	> 512	> 512	> 512	> 512	
CN[C@H](CC(C)C)C(=O)N[C@H]1C(=O)N[C@@H](CC(N)=O)C(=O)N[C@H]2C(=O)N[C@H]3C(=O)N[C@H](C(=O)N[C@H](C(=O)O)c4cc(O)cc(O)c4-c4cc3ccc4O)[C@H](O)c3ccc(c(Cl)c3)Oc3cc2cc(c3O[C@@H]2O[C@H](CO)[C@@H](O)[C@H](O)[C@H]2O[C@H]2C[C@](C)(N)[C@H](O)[C@H](C)O2)Oc2ccc(cc2Cl)[C@H]1O [vancomycin, reference compound]														No noticeable cytotoxicity
